A value given as a limit tells only on which side of the number the result lay.

What all share (type): cell-based
One assay relates to P. aeruginosa SR24. In words: MIC, CLSI broth microdilution, Test Example 1. The conditions noted are these: Pseudomonas aeruginosa, SR24; Ceftazidime resistance strain; cation-adjusted Mueller Hinton broth containing human apo-transferrin; 5×10^5 cfu/mL; read-out: Minimum Inhibitory Concentration (MIC) P. aeruginosa SR24. For orientation: In broth dilution the organism is exposed to a series of concentrations in liquid medium.

Another assay concerns P. aeruginosa SR27060. In words: MIC, CLSI broth microdilution, Test Example 1. The conditions noted are these: Pseudomonas aeruginosa, SR27060; IMP-1 MBL producing strain (carbapenem resistance strain); cation-adjusted Mueller Hinton broth containing human apo-transferrin; 5×10^5 cfu/mL; read-out: Minimum Inhibitory Concentration (MIC) P. aeruginosa SR27060. The procedure, abridged: (§1)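 Inoculum 5×10^5 cfu/mL in cation-adjusted Mueller Hinton broth containing human apo-transferrin, following CLSI procedure. MIC reported in μg/mL.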

Assay [1] concerns E. coli ATCCBAA-200. The experiment in a line: MIC, CLSI broth microdilution, Test Example 1. The settings on record: Escherichia coli, ATCCBAA200; SHV-4 ESBL producing strain; cation-adjusted Mueller Hinton broth containing human apo-transferrin; 5×10^5 cfu/mL; read-out: Minimum Inhibitory Concentration (MIC) E. coli ATCC BAA-200. The procedure, abridged: as §1
Another assay has as its system E. coli ATCCBAA-199. In words: MIC, CLSI broth microdilution, Test Example 1. The conditions noted are these: Escherichia coli, ATCCBAA199; SHV-3 ESBL producing strain; cation-adjusted Mueller Hinton broth containing human apo-transferrin; 5×10^5 cfu/mL; read-out: Minimum Inhibitory Concentration (MIC) E. coli ATCC BAA-199. The procedure, abridged:
as §1

A further assay concerns P. aeruginosa SR24837. In words: MIC, CLSI broth microdilution, Test Example 1. The conditions noted are these: Pseudomonas aeruginosa, SR24837; PER-1 ESBL producing strain; cation-adjusted Mueller Hinton broth containing human apo-transferrin; 5×10^5 cfu/mL; read-out: Minimum Inhibitory Concentration (MIC) P. aeruginosa SR24837. The procedure, abridged:
as §1

The subject of assay [2] is K. pneumoniae ATCCBAA-1705. The experiment in a line: MIC, CLSI broth microdilution, Test Example 1. The conditions noted are these: Klebsiella pneumoniae, ATCCBAA1705; KPC-2 carbapenemase producing strain; cation-adjusted Mueller Hinton broth containing human apo-transferrin; 5×10^5 cfu/mL; read-out: Minimum Inhibitory Concentration (MIC) K. pneumoniae ATCCBAA-1705. The procedure, abridged:
as §1

In another assay the test system is A. baumannii SR27323. In words: MIC, CLSI broth microdilution, Test Example 1. The settings on record: Acinetobacter baumannii, SR27323; OXA-23, OXA-58 carbapenemase producing strain; cation-adjusted Mueller Hinton broth containing human apo-transferrin; 5×10^5 cfu/mL; read-out: Minimum Inhibitory Concentration (MIC) A. baumannii SR27323. In short, it runs like this: as §1

A further assay deals with P. aeruginosa SR01332. In words: MIC, CLSI broth microdilution, Test Example 2. The settings on record: Pseudomonas aeruginosa, SR01332; VIM-11 MBL producing strain (carbapenem resistance strain); cation-adjusted Iso-Sensitest broth containing human Apo-transferrin; 5×10^5 cfu/mL; read-out: Minimum Inhibitory Concentration (MIC) P. aeruginosa SR01332. In short, it runs like this: (§2)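 Broth microdilution per CLSI, inoculum 5×10^5 cfu/mL, in cation-adjusted Iso-Sensitest broth supplemented with human Apo-transferrin. MIC reported in μg/mL.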

The test system of assay [3] is E. coli ATCCBAA-200. The experiment in a line: MIC, CLSI broth microdilution, Test Example 2. The settings on record: Escherichia coli, ATCCBAA200; SHV-4 ESBL producing strain; cation-adjusted Iso-Sensitest broth containing human Apo-transferrin; 5×10^5 cfu/mL; read-out: Minimum Inhibitory Concentration (MIC) E. coli ATCC BAA-200. In short, it runs like this:
as §2

For a further assay, the system named is A. baumannii SR01331. In words: MIC, CLSI broth microdilution, Test Example 2. The settings on record: Acinetobacter baumannii, SR01331; PER-1, OXA-23.51 ESBL- & OXA-type carbapenemase producing strain; cation-adjusted Iso-Sensitest broth containing human Apo-transferrin; 5×10^5 cfu/mL; read-out: Minimum Inhibitory Concentration (MIC) A. baumannii SR01331. In short, it runs like this: as §2

Another assay relates to P. aeruginosa SR01335. In words: MIC, CLSI broth microdilution, Test Example 2. The settings on record: Pseudomonas aeruginosa, SR01335; VIM-1 like MBL producing strain (carbapenem resistance strain); cation-adjusted Iso-Sensitest broth containing human Apo-transferrin; 5×10^5 cfu/mL; read-out: Minimum Inhibitory Concentration (MIC) P. aeruginosa SR01335. The procedure, abridged:
as §2

A further assay concerns K. pneumoniae ATCC700603. In words: MIC, CLSI broth microdilution, Test Example 2. The conditions noted are these: Klebsiella pneumoniae, ATCC700603; SHV18 ESBL producing strain; cation-adjusted Iso-Sensitest broth containing human Apo-transferrin; 5×10^5 cfu/mL; read-out: Minimum Inhibitory Concentration (MIC) K. pneumoniae ATCC 700603. The procedure, abridged:
as §2

A further assay relates to E. coli SR01337. The experiment in a line: MIC, CLSI broth microdilution, Test Example 2. The conditions noted are these: Escherichia coli, SR01337; TEM-1 ESBL producing strain; cation-adjusted Iso-Sensitest broth containing human Apo-transferrin; 5×10^5 cfu/mL; read-out: Minimum Inhibitory Concentration (MIC) E. coli SR01337. In short, it runs like this: as §2
For a further assay, the system named is E. cloacae NCTC13464. In words: MIC, CLSI broth microdilution, Test Example 2. The settings on record: Enterobacter cloacae, NCTC13464; CTX-M group 9 ESBL producing strain; cation-adjusted Iso-Sensitest broth containing human Apo-transferrin; 5×10^5 cfu/mL; read-out: Minimum Inhibitory Concentration (MIC) E. cloacae NCTC 13464. In short, it runs like this: as §2

The subject of a further assay is E. coli ATCCBAA-196. The experiment in a line: MIC, CLSI broth microdilution, Test Example 2. The conditions noted are these: Escherichia coli, ATCCBAA196; TEM-10 ESBL producing strain; cation-adjusted Iso-Sensitest broth containing human Apo-transferrin; 5×10^5 cfu/mL; read-out: Minimum Inhibitory Concentration (MIC) E. coli ATCC BAA-196. The procedure, abridged:
as §2

With `CC(C)(O/N=C(\C(=O)N[C@@H]1C(=O)N2C(c3nnn[n-]3)=C(C[N+]3(C)[C@@H]4CC[C@H]3C[C@@H](NC(=O)c3ccc(O)c(O)c3Cl)C4)CS[C@H]12)c1nc(N)sc1Cl)C(=O)[O-].[Na+]` (stereo partly shown) [Compound I-86], the MIC with P. aeruginosa SR24 is 0.063 µg/mL; in the assay on P. aeruginosa SR27060, 0.25 µg/mL; with E. coli ATCCBAA-200 [1] it was 0.5 µg/mL; in the assay on E. coli ATCCBAA-199, 0.5 µg/mL; with P. aeruginosa SR24837, ≤ 0.031 µg/mL; in assay [2], 0.063 µg/mL. For the same compound, the MIC in the assay on A. baumannii SR27323 is 2 µg/mL; in the assay with P. aeruginosa SR01332 it was 8 µg/mL; with E. coli ATCCBAA-200 [3] it was 1 µg/mL; in the assay with A. baumannii SR01331 it was 0.5 µg/mL; in the assay with P. aeruginosa SR01335, 4 µg/mL; in the assay with K. pneumoniae ATCC700603, 0.25 µg/mL. The MIC was ≤ 0.031 µg/mL in the assay on E. coli SR01337, 0.5 µg/mL in the assay with E. cloacae NCTC13464 and 0.125 µg/mL in the assay on E. coli ATCCBAA-196.

Regarding `CC(C)(O/N=C(\C(=O)N[C@@H]1C(=O)N2C(c3nnn[n-]3)=C(C[N+]34CCC(CNC(=O)c5cc(=O)c(O)c[nH]5)(CC3)CC4)CS[C@H]12)c1csc(N)n1)C(=O)[O-].[Na+]` [Compound I-9], the MIC in the assay with P. aeruginosa SR24 was found to be 0.25 µg/mL; in the assay with P. aeruginosa SR27060, 4 µg/mL; in the assay with E. coli ATCCBAA-200 [1], 0.5 µg/mL; in the assay with E. coli ATCCBAA-199, 0.25 µg/mL; in the assay on P. aeruginosa SR24837, 2 µg/mL; in assay [2], 0.063 µg/mL. Moreover, the MIC in the assay with A. baumannii SR27323 is 1 µg/mL.

For the origin of these results see patent US9334289B2, “Cephem compound having catechol or pseudo-catechol structure” (SHIONOGI & CO., LTD., priority 2011, dated 2016).
